Test system: cell aggregates modelling cancer tumoroids
Assay: drug susceptibility testing of cell aggregates by EIS-based electrical signatures and optical microscopy
Protocol: In another set of experiments, the method of the present disclosure is shown to be useful in the continuous monitoring of the physiological and/or morphological changes of cell aggregates in drug susceptibility testing. Paclitaxel (PTX), a common anti-cancer drug for several types of cancers, was provided at different concentrations ranging from 0 nM (nanoMole) to 500 nM to cultures of cell aggregates modelling cancer tumoroids and observed over a period of 24 hours. […] Based on optical microscopy, it can be appreciated that there are hardly any distinguishable differences between the cell aggregate image at 100 nM of PTX and the cell aggregate images at 200 nM PTX or 500 nM PTX. […] Conventionally, it would have required testing the extracellular environment for metabolites to determine such a change. In contrast, by considering the two EIS-based electrical signatures of electrical size and opacity, more information on the effect of drug treatment can be determined. […] The two EIS-based electrical signatures together are able to indicate that the physiological state of the cells undergo substantive changes only after the drug concentration is raised to 500 nM. This is consistent with what is known of the drug treatment modelled in these experiments, and validates the usefulness of the EIS-based electrical signatures in monitoring physiological and/or morphological changes in 3D cell aggregates.

CC(=O)O[C@H]1C(=O)[C@@]2(C)[C@H]([C@H](OC(=O)c3ccccc3)[C@]3(O)C[C@H](OC(=O)[C@H](O)[C@@H](NC(=O)c4ccccc4)c4ccccc4)C(C)=C1C3(C)C)[C@]1(OC(C)=O)CO[C@@H]1C[C@@H]2O [Paclitaxel]
optical size of the cell aggregate (optical microscopy) (100 nM PTX, 24 hours, FIG. 17A): started to decrease | electrical size of the cell aggregates (500 nM PTX, observed over 24 hours, FIG. 17B, 0 nM control 300±41.8 μm): 281±40.3 μm | opacity of the cell aggregates (drug concentration increased from 0 nM to 500 nM, 24 hours, FIG. 17C): remains relatively unchanged

Source: patent US12613179B2, “Label-free electrical monitoring of cell aggregates” (NANYANG TECHNOLOGICAL UNIVERSITY, priority 2020, dated 2026)
